Data reported in US9085806B2, “Methods for treating infection involving identification of a carbapanemase gene” (priority 2007, dated 2015).

Legend:
Experiment in all cases: Antimicrobial susceptibility testing, broth microdilution (CLSI)
Type in all cases: cell-based
[1] = tested on: E. coli ATCC 25922 (Strain ID 300960); conditions: Escherichia coli, ATCC25922; Strain ID 300960 ESCCOL, wild-type negative control; Mueller-Hinton broth; read-out: minimum inhibition concentration (MIC)
Description: (§1) Carbapenem-resistant Klebsiella and E. coli were identified by broth microdilution as described by CLSI from the BD ID/AST microbial bank (1). Wild-type (Ampicillin sensitive) E. coli ATCC 25922 (Strain ID 300960) was used through out the experiments as a negative control. Three strains previously determined to contain KPC-1, KPC-2, and KPC-3 (Strain ID 301916=KPC-1, 301917=KPC-2, 301918=KPC-3) were used as positive controls (4). […] ESBL positive strains were identified using the CLSI recommended broth microdilution assay (2). Prior to any processing or extraction, all strains were streaked out on Trypticase Soy Agar (TSA) plates containing 5% Sheep red blood cells (BD Diagnostic Systems, Sparks, Md.) and grown at 35° C. overnight.
(§2) Antimicrobial susceptibility testing was performed using Mueller-Hinton broth (BD Diagnostic Systems, Sparks, Md.) as described by CLSI (1). Antimicrobial powders were acquired from the following companies; Ampicillin (Amp) and Cefotaxime (CTX) (Sigma Chemical Co., St. Louis, Mo.), Ceftazidime (CAZ) (Eli Lilly, Indianapolis, Ind.), Clavulanic acid (Smith-Kline, King of Prussia, Pa.), Imipenem (IPM) (Merck & Co., Rahway, N.J.).
(§3) The BD ID/AST Microbial Bank was screened for carbapenem-resistant Klebsiella and E. coli with broth microdilution as described by CLSI (2). Klebsiella spp. and E. coli were chosen because they are the primary reservoir species for the plasmid-borne KPC gene.
(§4) ESBL positive strains were identified using the CLSI recommended broth microdilution assay (2). Briefly, this broth microdilution assay has a two-fold dilution scheme between a defined range of the antimicrobial agent. For example, where the defined range of the antimicrobial agent is […], the two-fold dilution between wells is represented by 0.25, 0.5, 1, 2, 4, 8, and 16 μg/ml. To identify ESBL positive strains, growth is evaluated in wells containing the antimicrobial agent of interest at these various two-fold dilutions across the defined range either alone or in combination with Clavulanic acid in order to determine the MIC for the antimicrobial agent alone or in combination with Clavulanic acid. […] A wild-type E. coli Strain ID 300960 was also screened and used as a negative control for all of the real-time assays.

[2] = tested on: E. coli Strain ID 301888; conditions: Escherichia coli; Strain ID 301888 ESCCOL, ESBL positive; Mueller-Hinton broth; read-out: minimum inhibition concentration (MIC)
Description: as §1, §2, §3, §4

[3] = tested on: E. coli Strain ID 301892; conditions: Escherichia coli; Strain ID 301892 ESCCOL, ESBL positive; Mueller-Hinton broth; read-out: minimum inhibition concentration (MIC)
Description: as §1, §2, §3, §4

[4] = tested on: E. coli Strain ID 301894; conditions: Escherichia coli; Strain ID 301894 ESCCOL, ESBL positive; Mueller-Hinton broth; read-out: minimum inhibition concentration (MIC)
Description: as §1, §2, §3, §4

[5] = tested on: E. coli Strain ID 301896; conditions: Escherichia coli; Strain ID 301896 ESCCOL, ESBL positive; Mueller-Hinton broth; read-out: minimum inhibition concentration (MIC)
Description: as §1, §2, §3, §4

[6] = tested on: E. coli Strain ID 301905; conditions: Escherichia coli; Strain ID 301905 ESCCOL; Mueller-Hinton broth; read-out: minimum inhibition concentration (MIC)
Description: as §1, §2, §3, §4

[7] = tested on: E. coli Strain ID 301918 (KPC-3); conditions: Escherichia coli; Strain ID 301918 ESCCOL, KPC-3 positive control; Mueller-Hinton broth; read-out: minimum inhibition concentration (MIC)
Description: as §1, §2, §3, §4

[8] = tested on: E. coli Strain ID 301921; conditions: Escherichia coli; Strain ID 301921 ESCCOL, ESBL positive; Mueller-Hinton broth; read-out: minimum inhibition concentration (MIC)
Description: as §1, §2, §3, §4

[9] = tested on: E. coli Strain ID 301922; conditions: Escherichia coli; Strain ID 301922 ESCCOL, ESBL positive; Mueller-Hinton broth; read-out: minimum inhibition concentration (MIC)
Description: as §1, §2, §3, §4

[10] = tested on: E. coli Strain ID 303364; conditions: Escherichia coli; Strain ID 303364 ESCCOL; Mueller-Hinton broth; read-out: minimum inhibition concentration (MIC)
Description: as §1, §2, §3, §4

[11] = tested on: E. coli Strain ID 303365; conditions: Escherichia coli; Strain ID 303365 ESCCOL, ESBL positive; Mueller-Hinton broth; read-out: minimum inhibition concentration (MIC)
Description: as §1, §2, §3, §4

[12] = tested on: E. coli Strain ID 303369; conditions: Escherichia coli; Strain ID 303369 ESCCOL; Mueller-Hinton broth; read-out: minimum inhibition concentration (MIC)
Description: as §1, §2, §3, §4

[13] = tested on: Klebsiella oxytoca Strain ID 300967; conditions: Strain ID 300967 KLEOXY, Mueller-Hinton broth, read-out: minimum inhibition concentration (MIC)
Description: as §1, §2, §3, §4

[14] = tested on: Klebsiella oxytoca Strain ID 303990; conditions: Strain ID 303990 KLEOXY, Mueller-Hinton broth, read-out: minimum inhibition concentration (MIC)
Description: as §1, §2, §3, §4

[15] = tested on: Klebsiella pneumoniae Strain ID 300996; conditions: Strain ID 300996 KLEPNEP, ESBL positive, Mueller-Hinton broth, read-out: minimum inhibition concentration (MIC)
Description: as §1, §2, §3, §4

[16] = tested on: Klebsiella pneumoniae Strain ID 301008; conditions: Strain ID 301008 KLEPNEP, Mueller-Hinton broth, read-out: minimum inhibition concentration (MIC)
Description: as §1, §2, §3, §4

[17] = tested on: Klebsiella pneumoniae Strain ID 301891; conditions: Strain ID 301891 KLEPNEP, Mueller-Hinton broth, read-out: minimum inhibition concentration (MIC)
Description: as §1, §2, §3, §4

[18] = tested on: Klebsiella pneumoniae Strain ID 301898; conditions: Strain ID 301898 KLEPNEP, Mueller-Hinton broth, read-out: minimum inhibition concentration (MIC)
Description: as §1, §2, §3, §4

[19] = tested on: Klebsiella pneumoniae Strain ID 301899; conditions: Strain ID 301899 KLEPNEP, Mueller-Hinton broth, read-out: minimum inhibition concentration (MIC)
Description: as §1, §2, §3, §4

[20] = tested on: Klebsiella pneumoniae Strain ID 301916 (KPC-1); conditions: Strain ID 301916 KLEPNEP, KPC-1 positive control, Mueller-Hinton broth, read-out: minimum inhibition concentration (MIC)
Description: as §1, §2, §3, §4

[21] = tested on: Klebsiella pneumoniae Strain ID 301917 (KPC-2); conditions: Strain ID 301917 KLEPNEP, KPC-2 positive control, ESBL positive, Mueller-Hinton broth, read-out: minimum inhibition concentration (MIC)
Description: as §1, §2, §3, §4

[22] = tested on: Klebsiella pneumoniae Strain ID 301919; conditions: Strain ID 301919 KLEPNEP, ESBL positive, Mueller-Hinton broth, read-out: minimum inhibition concentration (MIC)
Description: as §1, §2, §3, §4

[23] = tested on: Klebsiella pneumoniae Strain ID 301920; conditions: Strain ID 301920 KLEPNEP, ESBL positive, Mueller-Hinton broth, read-out: minimum inhibition concentration (MIC)
Description: as §1, §2, §3, §4

[24] = tested on: Klebsiella pneumoniae Strain ID 303375; conditions: Strain ID 303375 KLEPNEP, Mueller-Hinton broth, read-out: minimum inhibition concentration (MIC)
Description: as §1, §2, §3, §4

Compound | MIC [1] [µg/mL] | MIC [2] [µg/mL] | MIC [3] [µg/mL] | MIC [4] [µg/mL] | MIC [5] [µg/mL] | MIC [6] [µg/mL] | MIC [7] [µg/mL] | MIC [8] [µg/mL] | MIC [9] [µg/mL] | MIC [10] [µg/mL] | MIC [11] [µg/mL] | MIC [12] [µg/mL] | MIC [13] [µg/mL] | MIC [14] [µg/mL] | MIC [15] [µg/mL] | MIC [16] [µg/mL] | MIC [17] [µg/mL] | MIC [18] [µg/mL] | MIC [19] [µg/mL] | MIC [20] [µg/mL] | further results
CC1(C)S[C@@H]2[C@H](NC(=O)[C@H](N)c3ccccc3)C(=O)N2[C@H]1C(=O)O [Amp, Ampicillin] | ≤ 0.25 | > 32 | > 32 | > 32 | > 32 | > 32 | > 32 | > 32 | > 32 | > 32 | > 32 | > 32 | > 32 | > 32 | > 32 | 16 | > 32 | > 32 | > 32 | > 32 | MIC [21]: > 32 µg/mL; MIC [22]: > 32 µg/mL; MIC [23]: > 32 µg/mL; MIC [24]: > 32 µg/mL
CC(C)(O/N=C(\C(=O)N[C@@H]1C(=O)N2C(C(=O)[O-])=C(C[n+]3ccccc3)CS[C@H]12)c1csc(N)n1)C(=O)O [CAZ, Ceftazidime] | ≤ 0.5 | 64 | 64 | > 128 | > 128 | 32 | > 128 | 32 | 16 | 128 | > 128 | 64 | 128 | 128 | 4 | ≤ 0.25 | 16 | > 128 | > 128 | > 128 | MIC [21]: 4 µg/mL; MIC [22]: 32 µg/mL; MIC [23]: 64 µg/mL; MIC [24]: 64 µg/mL
CO/N=C(\C(=O)N[C@@H]1C(=O)N2C(C(=O)O)=C(COC(C)=O)CS[C@H]12)c1csc(N)n1 [CTX, Cefotaxime] | ≤ 0.25 | 32 | 32 | 16 | 64 | > 64 | > 64 | > 64 | > 64 | 32 | > 64 | 32 | > 64 | > 64 | 2 | ≤ 0.25 | 4 | > 64 | > 64 | > 64 | MIC [21]: 32 µg/mL; MIC [22]: 16 µg/mL; MIC [23]: > 64 µg/mL; MIC [24]: 32 µg/mL
C[C@@H](O)[C@H]1C(=O)N2C(C(=O)O)=C(SCCN=CN)C[C@H]12 [IPM, Imipenem] | ≤ 0.25 | 4 | 4 | ≤ 2 | ≤ 2 | 8 | 16 | ≤ 2 | ≤ 0.25 | ≤ 2 | ≤ 2 | ≤ 2 | > 16 | 16 | 8 | ≤ 2 | ≤ 2 | 4 | 4 | 8 | MIC [21]: 8 µg/mL; MIC [22]: ≤ 2 µg/mL; MIC [23]: ≤ 2 µg/mL; MIC [24]: ≤ 2 µg/mL
